Test results from US4880922A, “Carbapenems with quaternized heterothioalkylthio substitution at position 2” (Bristol-Myers Company, priority 1985, dated 1989).
Values after ≈ are worked out from the molar mass of the structure shown.

Legend:
Ps. (Carb-R) = assay: In vitro antibacterial activity, MIC by tube dilution; assay type: cell-based; conditions: Nutrient Broth, overnight, 37° C.
Pr. morganii = assay: as above; assay type: cell-based; conditions: Morganella morganii, Nutrient Broth, overnight, 37° C.
Ent. cloacae = assay: as above; assay type: cell-based; conditions: Enterobacter cloacae, Nutrient Broth, overnight, 37° C.
Pr. vulgaris = assay: as above; assay type: cell-based; conditions: Proteus vulgaris, Nutrient Broth, overnight, 37° C.
K. pneumoniae = assay: as above; assay type: cell-based; conditions: Klebsiella pneumoniae, Nutrient Broth, overnight, 37° C.
Pr. rettgeri = assay: as above; assay type: cell-based; conditions: Providencia rettgeri, Nutrient Broth, overnight, 37° C.
Str. faecalis = assay: as above; assay type: cell-based; conditions: Enterococcus faecalis, Nutrient Broth, overnight, 37° C.
Str. pneumoniae = assay: as above; assay type: cell-based; conditions: Streptococcus pneumoniae, Nutrient Broth, overnight, 37° C.
Str. pyogenes = assay: as above; assay type: cell-based; conditions: Streptococcus pyogenes, Nutrient Broth, overnight, 37° C.
[1] = Blood levels in mice after intramuscular administration; assay type: in vivo; conditions: mouse, im, 20 mg/kg
Text: (§1) Compounds were solubilized in 0.1 M phosphate buffer pH 7. Values are fro
(§2) a single test; 4 mice per compound.

Pr. mirabilis = assay: In vitro antibacterial activity, MIC by tube dilution; assay type: cell-based; conditions: Proteus mirabilis, Nutrient Broth, overnight, 37° C.
[2] = Urinary recovery after intramuscular administration to mice; assay type: in vivo; conditions: mouse, urine, im, 20 mg/kg, 0-24 hours after administration, 0.1 M phosphate buffer pH 7, single test, 4 mice, read-out: Urinary recovery, Percentage of Dose Recovered
Text: as §1, §2

Ser. marcescens = assay: In vitro antibacterial activity, MIC by tube dilution; assay type: cell-based; conditions: Serratia marcescens, Nutrient Broth, overnight, 37° C.
Staph. aureus (Pen-R) = assay: as above; assay type: cell-based; conditions: Staphylococcus aureus, Nutrient Broth, overnight, 37° C.
Ps. aeruginosa [3] = assay: as above; assay type: cell-based; conditions: Pseudomonas aeruginosa, Nutrient Broth, overnight, 37° C.
Ps. aeruginosa [4] = assay: Protective effect in the intramuscular treatment of infected mice; assay type: in vivo; conditions: Pseudomonas aeruginosa, im, I.M., column of the in vitro table, read-out: PD50 I.M.
Procedure: The in vivo therapeutic efficacy of the compound of Example 1 after intramuscular administration to mice experimentally infected with various organisms are shown in the following Table. The PD50 (dose in mg/kg required to give protection to 50% of the infected mice) is indicated.
Treatment Schedule: Mice were treated i.m. with drugs 0 and 2 hours

Staph. aureus = assay: In vitro antibacterial activity, MIC by tube dilution; assay type: cell-based; conditions: Staphylococcus aureus, Nutrient Broth, overnight, 37° C.
E. coli = assay: as above; assay type: cell-based; conditions: Escherichia coli, Nutrient Broth, overnight, 37° C.

Molecule `C[C@@H](O)[C@H]1C(=O)N2C(C(=O)[O-])=C(SCCSc3cccc[n+]3C)C[C@H]12` [Example 1, (5R,6S) 6-(1R-hydroxyethyl)-3-[(1-methylpyridinium-2-yl)-2-thioethylthio]-7-oxo-1-azabicyclo (3.2.0)hept-2-ene-2-carboxylate] has an MIC (Ps. (Carb-R)) of 2 µg/mL (≈ 5.26 µM), an MIC (Pr. morganii) of 0.06 µg/mL (≈ 0.158 µM) and an MIC (Ent. cloacae; first line (strain not named)) of 0.06 µg/mL (≈ 0.158 µM). The MIC (Ent. cloacae; second line (strain not named)) was 0.13 µg/mL (≈ 0.342 µM), the MIC (Pr. vulgaris) was 0.016 µg/mL (≈ 0.0421 µM) and the MIC (K. pneumoniae; first line (strain not named)) was 0.03 µg/mL (≈ 0.0788 µM). It also gave an MIC (K. pneumoniae; second line (strain not named)) of 0.06 µg/mL (≈ 0.158 µM), an MIC (Pr. rettgeri) of 0.13 µg/mL (≈ 0.342 µM) and an MIC (Str. faecalis) of 0.13 µg/mL (≈ 0.342 µM). The MIC (Str. pneumoniae) was 0.0005 µg/mL (≈ 0.00131 µM), the MIC (Str. pyogenes) was 0.0005 µg/mL (≈ 0.00131 µM) and the AUC [1] was 4100 ng·h/mL. The concentration at 10 min ([1]; 10 min after administration, read-out: Blood Level) was 11100 ng/mL, the concentration at 20 min ([1]; 20 min after administration, read-out: Blood Level) was 8000 ng/mL and the concentration at 0.5 h ([1]; 30 min after administration, read-out: Blood Level) was 3600 ng/mL. For the same molecule, the concentration at 0.75 h ([1]; 45 min after administration, read-out: Blood Level) was 1000 ng/mL, the concentration at 1 h ([1]; 60 min after administration, read-out: Blood Level) was < 300 ng/mL and the concentration at 1.5 h ([1]; 90 min after administration, read-out: Blood Level) was < 300 ng/mL. The half-life ([1]; read-out: t1/2 (half-life)) was 8 min, the MIC (Pr. mirabilis) was 0.016 µg/mL (≈ 0.0421 µM) and the dose excreted at 24 h [2] was 31.5%. For the same molecule, the MIC (Ser. marcescens) was 0.03 µg/mL (≈ 0.0788 µM), the MIC (Staph. aureus (Pen-R)) was 0.004 µg/mL (≈ 0.0105 µM) and the MIC (Ps. aeruginosa [3]) was 8 µg/mL (≈ 21 µM). It also gave an ED50 (Ps. aeruginosa [4]) of 2.9 mg/kg, an MIC (Staph. aureus; Staph. aureus + 50% serum) of 0.008 µg/mL and an MIC (Staph. aureus; Staph. aureus) of 0.004 µg/mL (≈ 0.0105 µM). The MIC (E. coli; first line (strain not named)) was 0.008 µg/mL (≈ 0.021 µM) and the MIC (E. coli; second line (strain not named)) was 0.016 µg/mL (≈ 0.0421 µM).
